Reference: patent US20090169642A1, “RECONSTRUCTED LIVING ADIPOSE TISSUE” (priority 2005, published 2009)

Key:
[1] = test system: tissue-engineered adipose sheets; experiment: Lipolysis measurements (glycerol release from adipose tissue sheets); format: cell-based, human
Description: Lipolysis measurements. The lipolytic cell response of the adipose tissue sheets cultured for 27 days was assessed by measuring the amount of glycerol released into the incubation medium after treatment with 1 μM isoproterenol or its appropriate vehicle control. The tissues were previously incubated in serum-free medium for a minimum of 2 days to avoid interference with serum factors, and rinsed with serum-free medium before the assay. After 1, 2, 4 and 24 hours, the conditioned medium was immediately tested for the release of glycerol using an enzyme-coupled glycerol assay based on a colorimetric quantification (Sigma).

[2] = test system: adipose-derived stromal cells; experiment: Quantification of adipose differentiation by Oil Red O staining; format: cell-based, human; settings: fresh stromal cells not submitted to freezing, medium with vs without ascorbic acid
Description: Quantification of adipose differentiation. After 14 days of differentiation, independently of the time spent in culture before the time of adipogenic induction, Oil Red 0 (ORO) staining of the cytoplasmic neutral lipids of the droplets were performed according to a modification from [Kuri-Harcuch W et al. 1978; 75(12):6107-9, Ramirez-Zacarias J L et al. Histochemistry 1992; 97(6):493-7]. Briefly, cultures were rinsed, fixed with 10% buffered formalin, stained with 0.3% ORO in isopropanol and extracted with 4% Nonidet/isopropanol for quantification at 520 nm using a SpectraMax Plus™ spectrometer (Molecular Device) with SoftmaxPro™ Ver 4.7.1.

| SMILES | time of peak in glycerol release post-stimulation ([1]; 1 μm isoproterenol, LA adipose tissue sheet cells in P3, adipocytes differentiated for 20 days, relative to basal levels) | lipolytic activation (hydrolysis of triglycerides into fatty acids and glycerol) ([1]; isoproterenol 1 μM, adipose constructs from lipoaspirated fat in P3, 20 days of in vitro differentiation) | adipocyte differentiation (ORO staining) [2] |
| --- | --- | --- | --- |
| CC(C)NCC(O)c1ccc(O)c(O)c1 (stereo not drawn) [Isoproterenol] | 2 h | induced the hydrolysis of triglycerides | – |
| O=C1O[C@H]([C@@H](O)CO)C(O)=C1O [ascorbic acid] | – | – | can promote adipocyte differentiation |
